Source: patent US20050209157A1, “Short bioactive peptides and methods for their use” (priority 2001, published 2005)
Converted amounts (≈) assume the structure as drawn. No end group written: not given here.

What was measured:
[1] = tested on: Escherichia coli ATCC 25922; assay: Antimicrobial assay I, modified protocol (tryptic soy broth), MBC; details: minimum bactericidal concentration, Table 4
[2] = tested on: Pseudomonas aeruginosa ATCC 27853; assay: as above; details: minimum bactericidal concentration, Table 4
[3] = tested on: Stapholococcus aureus ATCC 25923; assay: as above; details: minimum bactericidal concentration, Table 4
[4] = tested on: Candida albicans ATCC 10231; assay: Antimicrobial assay I, modified protocol (tryptic soy broth), MFC; details: minimum fungicidal concentration, Table 4

Row | Compound | MBC E. coli A.25922 [1] | MBC P. aerug A.27853 [2] | MBC S. aur A.25923 [3] | MFC Candida A.10231 [4]
1 | CC(C)C[C@H](NC(=O)[C@H](CCCCN)NC(=O)[C@H](Cc1c[nH]c2ccccc12)NC(=O)[C@H](CCCCN)NC(=O)[C@H](CCCCN)NC(=O)[C@H](C)NC(=O)[C@H](CC(C)C)NC(=O)[C@H](CCCCN)NC(=O)[C@H](CCCCN)NC(=O)[C@H](C)NC(=O)[C@H](CC(C)C)NC(=O)[C@H](CCCCN)NC(=O)[C@H](CCCCN)NC(=O)[C@H](CC(C)C)NC(=O)[C@H](CCCCN)NC(=O)[C@H](CCCCN)NC(=O)[C@H](C)NC(=O)[C@H](CC(C)C)NC(=O)[C@H](CCCCN)NC(=O)[C@H](CCCCN)NC(=O)[C@H](C)NC(=O)[C@@H](N)Cc1ccccc1)C(=O)O [compound 72] | >50 µg/mL | 40 µg/mL (≈ 15.3 µM) | >50 µg/mL | >50 µg/mL
2 | CC(C)C[C@H](NC(=O)[C@H](C)NC(=O)[C@H](CCCCN)NC(=O)[C@H](CCCCN)NC(=O)[C@H](C)NC(=O)[C@H](CC(C)C)NC(=O)[C@H](CCCCN)NC(=O)[C@H](C)NC(=O)[C@H](CC(C)C)NC(=O)[C@H](CC(C)C)NC(=O)[C@H](CCCCN)NC(=O)[C@H](C)NC(=O)[C@@H](N)Cc1ccc(O)cc1)C(N)=O [compound 155] | >250 µg/mL | >250 µg/mL | >250 µg/mL | >250 µg/mL
3 | FAKIIAKIAKKI-NH2 [compound 143] | INACT | INACT | INACT | INACT
4 | FAKLLAKLAKKIL-NH2 [compound 125] | 40 µg/mL | 40 µg/mL | INACT | 40 µg/mL
5 | CC(C)C[C@H](NC(=O)[C@H](CCCCN)NC(=O)[C@H](CCCCN)NC(=O)[C@H](C)NC(=O)[C@H](CC(C)C)NC(=O)[C@H](CCCCN)NC(=O)[C@H](C)NC(=O)[C@H](CCCCN)NC(=O)[C@H](CCCCN)NC(=O)[C@H](C)NC(=O)[C@H](CC(C)C)NC(=O)[C@H](CCCCN)NC(=O)[C@H](CCCCN)NC(=O)[C@H](C)NC(=O)[C@@H](N)Cc1ccccc1)C(N)=O [compound 77] | >50 µg/mL | >50 µg/mL | >50 µg/mL | >50 µg/mL
6 | CC(C)C[C@H](NC(=O)[C@H](CCCCN)NC(=O)[C@H](CC(C)C)NC(=O)[C@H](Cc1c[nH]c2ccccc12)NC(=O)[C@H](CCCCN)NC(=O)[C@H](CCCCN)NC(=O)[C@H](C)NC(=O)[C@H](Cc1c[nH]c2ccccc12)NC(=O)[C@H](CCCCN)NC(=O)[C@H](CCCCN)NC(=O)[C@H](Cc1c[nH]c2ccccc12)NC(=O)[C@H](CC(C)C)NC(=O)[C@@H](N)CCCCN)C(=O)N[C@@H](Cc1c[nH]c2ccccc12)C(=O)N[C@@H](CCCCN)C(=O)N[C@@H](C)C(=O)N[C@@H](Cc1c[nH]c2ccccc12)C(N)=O [compound 163] | 25 µg/mL (≈ 10.7 µM) | 50 µg/mL (≈ 21.5 µM) | 25 µg/mL (≈ 10.7 µM) | 25 µg/mL (≈ 10.7 µM)
7 | CC(C)C[C@H](NC(=O)[C@H](CC(C)C)NC(=O)[C@H](CCCCN)NC(=O)[C@H](CCCCN)NC(=O)[C@H](C)NC(=O)[C@H](CC(C)C)NC(=O)[C@H](CCCCN)NC(=O)[C@H](CCCCN)NC(=O)[C@H](C)NC(=O)[C@@H](N)Cc1ccccc1)C(N)=O [compound 59] | >50 µg/mL | >50 µg/mL | >50 µg/mL | >50 µg/mL
8 | FAFGKGIGKVGKKLL-NH2 [compound 133] | INACT | INACT | INACT | INACT
9 | CC(C)C[C@H](NC(=O)[C@H](CCCCN)NC(=O)[C@H](CCCCN)NC(=O)[C@H](C)NC(=O)[C@H](CC(C)C)NC(=O)[C@H](CCCCN)NC(=O)[C@H](C)NC(=O)[C@H](CC(C)C)NC(=O)[C@H](CC(C)C)NC(=O)[C@H](CCCCN)NC(=O)[C@H](C)NC(=O)[C@@H](N)Cc1ccccc1)C(N)=O [compound 49] | 40 µg/mL (≈ 29.8 µM) | 30 µg/mL (≈ 22.3 µM) | 50 µg/mL (≈ 37.2 µM) | 30 µg/mL (≈ 22.3 µM)
10 | CC(C)C[C@H](NC(=O)[C@H](CC(C)C)NC(=O)[C@H](CCCCN)NC(=O)[C@H](C)NC(=O)[C@H](CC(C)C)NC(=O)[C@H](C)NC(=O)[C@H](CCCCN)NC(=O)[C@H](CCCCN)NC(=O)[C@H](C)NC(=O)[C@H](CC(C)C)NC(=O)[C@H](CCCCN)NC(=O)[C@H](C)NC(=O)[C@@H](N)Cc1ccccc1)C(N)=O [compound 148] | 150 µg/mL (≈ 106 µM) | >250 µg/mL | >250 µg/mL | 100 µg/mL (≈ 70.7 µM)
11 | FAKIIAKIAKIAKKIL-NH2 [compound 139] | INACT | INACT | INACT | INACT
12 | CC(C)C[C@H](NC(=O)[C@H](C)NC(=O)[C@H](CCCCN)NC(=O)[C@H](CCCCN)NC(=O)[C@H](CC(C)C)NC(=O)[C@H](C)NC(=O)[C@H](CCCCN)NC(=O)[C@H](C)NC(=O)[C@H](CC(C)C)NC(=O)[C@H](C)NC(=O)[C@@H](N)Cc1ccccc1)C(N)=O [compound 166] | >250 µg/mL | >250 µg/mL | >250 µg/mL | >250 µg/mL
13 | CC(C)C[C@H](NC(=O)[C@H](C)NC(=O)[C@H](C)NC(=O)[C@H](CCCCN)NC(=O)[C@H](C)NC(=O)[C@H](CC(C)C)NC(=O)[C@H](CCCCN)NC(=O)[C@H](CCCCN)NC(=O)[C@H](C)NC(=O)[C@H](CC(C)C)NC(=O)[C@H](CCCCN)NC(=O)[C@H](CCCCN)NC(=O)[C@H](C)NC(=O)[C@@H](N)Cc1ccccc1)C(N)=O [compound 76] | 40 µg/mL (≈ 26.7 µM) | >55 µg/mL | >55 µg/mL | >50 µg/mL
14 | CC(C)C[C@H](NC(=O)[C@H](C)NC(=O)[C@H](CC(C)C)NC(=O)[C@H](C)NC(=O)[C@H](CC(C)C)NC(=O)[C@H](CCCCN)NC(=O)[C@H](C)NC(=O)[C@H](CC(C)C)NC(=O)[C@H](CCCCN)NC(=O)[C@H](CCCCN)NC(=O)[C@H](CC(C)C)NC(=O)[C@H](CCCCN)NC(=O)[C@H](CCCCN)NC(=O)[C@H](C)NC(=O)[C@H](CC(C)C)NC(=O)[C@H](CCCCN)NC(=O)[C@H](CCCCN)NC(=O)[C@H](C)NC(=O)[C@@H](N)Cc1ccccc1)C(=O)O [27C] | 10 µg/mL (≈ 4.77 µM) | 4 µg/mL (≈ 1.91 µM) | >40 µg/mL | >40 µg/mL
15 | CC(C)C[C@H](NC(=O)[C@H](CC(C)C)NC(=O)[C@H](CCCCN)NC(=O)[C@H](C)NC(=O)[C@H](CC(C)C)NC(=O)[C@H](C)NC(=O)[C@H](CCCCN)NC(=O)[C@H](CCCCN)NC(=O)[C@H](C)NC(=O)[C@H](CC(C)C)NC(=O)[C@H](CCCCN)NC(=O)[C@H](C)NC(=O)[C@@H](N)CCCCN)C(N)=O [compound 149] | 150 µg/mL (≈ 108 µM) | >250 µg/mL | >250 µg/mL | 100 µg/mL (≈ 71.7 µM)
16 | FAKLWAKLAFGKGIGKVGKKLL-NH2 [compound 135] | INACT | 40 µg/mL | INACT | 25 µg/mL
17 | FAKLA-NH2 [compound 128] | INACT | INACT | INACT | INACT
18 | CC(C)C[C@H](NC(=O)[C@H](C)NC(=O)[C@H](CCCCN)NC(=O)[C@H](CCCCN)NC(=O)[C@H](CC(C)C)NC(=O)[C@H](C)NC(=O)[C@H](CCCCN)NC(=O)[C@H](CC(C)C)NC(=O)[C@H](CC(C)C)NC(=O)[C@H](C)NC(=O)[C@@H](N)Cc1ccccc1)C(N)=O [compound 171] | 75 µg/mL (≈ 61.7 µM) | 100 µg/mL (≈ 82.3 µM) | >250 µg/mL | 50 µg/mL (≈ 41.2 µM)
19 | CC(C)C[C@H](NC(=O)[C@H](C)NC(=O)[C@@H](N)Cc1ccccc1)C(=O)N[C@@H](C)C(=O)N[C@@H](CC(C)C)C(=O)N[C@@H](CCCCN)C(=O)N[C@@H](C)C(=O)N[C@@H](CC(C)C)C(=O)N[C@@H](CCCCN)C(=O)N[C@@H](CCCCN)C(N)=O [compound 169] | 200 µg/mL (≈ 182 µM) | >250 µg/mL | >250 µg/mL | 75 µg/mL (≈ 68.1 µM)
20 | CC(C)C[C@H](NC(=O)[C@H](CCCCN)NC(=O)[C@H](CC(C)C)NC(=O)[C@H](CCCCN)NC(=O)[C@H](CC(C)C)NC(=O)[C@H](C)NC(=O)[C@H](CCCCN)NC(=O)[C@H](C)NC(=O)[C@H](CC(C)C)NC(=O)[C@H](CC(C)C)NC(=O)[C@H](CCCCN)NC(=O)[C@H](C)NC(=O)[C@@H](N)Cc1ccccc1)C(N)=O [compound 101] | 300 µg/mL (≈ 206 µM) | >50 µg/mL | >50 µg/mL | 40 µg/mL (≈ 27.5 µM)
